Measured values: patent US20030166583A1, “Dermal cytochrome P450 1A inhibitors and enhancers” (priority 2002, published 2003)
Entries after “also recorded” stand apart in the source; their conditions may differ.

Test system: dermal CYP1A
Test: Dermal microsomal CYP1A enzymatic activity (7-ethoxyresorufin-O-deethylase), inhibition or enhancement
Conditions: at certain concentration (1, 10 or 100 μM)
Excerpt: Nude mice were sacrificed by decapitation.
The precipitate containing the microsomes was obtained.

Structure (SMILES) | inhibitory effect on dermal CYP1A activity, in words
O=c1cc(-c2ccccc2)oc2cc(O)c(O)c(O)c12 [Baicalein] | inhibition effects
O=C(O)[C@H]1O[C@@H](Oc2cc3oc(-c4ccccc4)cc(=O)c3c(O)c2O)[C@H](O)[C@@H](O)[C@@H]1O [Baicalin] | inhibition effects
COc1ccc([C@@H]2CC(=O)c3c(O)cc(O[C@@H]4O[C@H](CO[C@@H]5O[C@@H](C)[C@H](O)[C@@H](O)[C@H]5O)[C@@H](O)[C@H](O)[C@H]4O)cc3O2)cc1O [Hesperidin] | inhibition effects
O=c1cc(-c2ccc(O)c(O)c2)oc2cc(O[C@@H]3O[C@H](CO)[C@@H](O)[C@H](O)[C@H]3O)cc(O)c12 [Luteolin-7-glucoside] | inhibition effects
O=C1C[C@@H](c2ccc(O)cc2)Oc2cc(O)cc(O)c21 [Narigenin] | inhibition effects

Same assay, conditions: at certain concentration (1, 10 or 100 μM); listed as luteolin-7-glycoside

Structure (SMILES) | inhibitory effect on dermal CYP1A activity, in words
O=c1cc(-c2ccc(O)c(O)c2)oc2cc(O[C@@H]3O[C@H](CO)[C@@H](O)[C@H](O)[C@H]3O)cc(O)c12 [Luteolin-7-glucoside] | strongest inhibitory effect; also recorded: most effective inhibitors

Same assay, conditions: at certain concentrations (1, 10 or 100 μM)

Structure (SMILES) | enhancing effect on dermal CYP1A activity, in words
O=c1cc(-c2ccc(O)c(O)c2)oc2cc(O[C@@H]3O[C@H](CO)[C@@H](O)[C@H](O)[C@H]3O)cc(O)c12 [Luteolin-7-glucoside] | enhancing effects

Same assay, conditions: compound 1 μM; skin microsomes; mean of at least 3 repeats

Structure (SMILES) | dermal CYP1A activity (% of control group) [%]
O=c1cc(-c2ccccc2)oc2cc(O)c(O)c(O)c12 [Baicalein] | 64.73
O=C(O)[C@H]1O[C@@H](Oc2cc3oc(-c4ccccc4)cc(=O)c3c(O)c2O)[C@H](O)[C@@H](O)[C@@H]1O [Baicalin] | 90.14
COc1ccc([C@@H]2CC(=O)c3c(O)cc(O[C@@H]4O[C@H](CO[C@@H]5O[C@@H](C)[C@H](O)[C@@H](O)[C@H]5O)[C@@H](O)[C@H](O)[C@H]4O)cc3O2)cc1O [Hesperidin] | 62.61
O=c1cc(-c2ccc(O)c(O)c2)oc2cc(O[C@@H]3O[C@H](CO)[C@@H](O)[C@H](O)[C@H]3O)cc(O)c12 [Luteolin-7-glucoside] | 105.07
O=C1C[C@@H](c2ccc(O)cc2)Oc2cc(O)cc(O)c21 [Narigenin] | 29.41

Same assay, conditions: compound 10 μM

Structure (SMILES) | inhibition of dermal CYP1A activity
O=c1cc(-c2ccccc2)oc2cc(O)c(O)c(O)c12 [Baicalein] | about 47%
COc1ccc([C@@H]2CC(=O)c3c(O)cc(O[C@@H]4O[C@H](CO[C@@H]5O[C@@H](C)[C@H](O)[C@@H](O)[C@H]5O)[C@@H](O)[C@H](O)[C@H]4O)cc3O2)cc1O [Hesperidin] | about 47%

Same assay, conditions: compound 10 μM; skin microsomes; mean of at least 3 repeats

Structure (SMILES) | dermal CYP1A activity (% of control group) [%]
O=c1cc(-c2ccccc2)oc2cc(O)c(O)c(O)c12 [Baicalein] | 48.84
O=C(O)[C@H]1O[C@@H](Oc2cc3oc(-c4ccccc4)cc(=O)c3c(O)c2O)[C@H](O)[C@@H](O)[C@@H]1O [Baicalin] | 82.85
COc1ccc([C@@H]2CC(=O)c3c(O)cc(O[C@@H]4O[C@H](CO[C@@H]5O[C@@H](C)[C@H](O)[C@@H](O)[C@H]5O)[C@@H](O)[C@H](O)[C@H]4O)cc3O2)cc1O [Hesperidin] | 52.72
O=c1cc(-c2ccc(O)c(O)c2)oc2cc(O[C@@H]3O[C@H](CO)[C@@H](O)[C@H](O)[C@H]3O)cc(O)c12 [Luteolin-7-glucoside] | 88.05
O=C1C[C@@H](c2ccc(O)cc2)Oc2cc(O)cc(O)c21 [Narigenin] | 34.90

Same assay, conditions: compound 100 μM

Structure (SMILES) | inhibition of dermal CYP1A activity
O=C(O)[C@H]1O[C@@H](Oc2cc3oc(-c4ccccc4)cc(=O)c3c(O)c2O)[C@H](O)[C@@H](O)[C@@H]1O [Baicalin] | about 24%
O=C1C[C@@H](c2ccc(O)cc2)Oc2cc(O)cc(O)c21 [Narigenin] | about 83%

Same assay, conditions: compound 100 μM; 100 µM

Structure (SMILES) | inhibition of dermal CYP1A activity
O=c1cc(-c2ccc(O)c(O)c2)oc2cc(O[C@@H]3O[C@H](CO)[C@@H](O)[C@H](O)[C@H]3O)cc(O)c12 [Luteolin-7-glucoside] | about 97%

Same assay, conditions: compound 100 μM; skin microsomes; mean of at least 3 repeats

Structure (SMILES) | dermal CYP1A activity (% of control group) [%]
O=c1cc(-c2ccccc2)oc2cc(O)c(O)c(O)c12 [Baicalein] | 55.82
O=C(O)[C@H]1O[C@@H](Oc2cc3oc(-c4ccccc4)cc(=O)c3c(O)c2O)[C@H](O)[C@@H](O)[C@@H]1O [Baicalin] | 75.91
COc1ccc([C@@H]2CC(=O)c3c(O)cc(O[C@@H]4O[C@H](CO[C@@H]5O[C@@H](C)[C@H](O)[C@@H](O)[C@H]5O)[C@@H](O)[C@H](O)[C@H]4O)cc3O2)cc1O [Hesperidin] | 57.75
O=c1cc(-c2ccc(O)c(O)c2)oc2cc(O[C@@H]3O[C@H](CO)[C@@H](O)[C@H](O)[C@H]3O)cc(O)c12 [Luteolin-7-glucoside] | 2.53
O=C1C[C@@H](c2ccc(O)cc2)Oc2cc(O)cc(O)c21 [Narigenin] | 17.26

Test system: liver CYP1A
Test: Liver microsomal CYP1A enzymatic activity, inhibition or enhancement
Conditions: at certain concentration (1, 10 or 100 μM)
Experimental: Nude mice were sacrificed by decapitation. The skin and liver were immediately removed and kept in ice bath or 4° C. […] Connective tissue, blood, and fat were carefully removed from the tissue. Excess water content was removed from the homogenized tissue by tissue papers before the tissue was weighed.
The suspension of homogenized tissue in potassium chloride solution was transferred into a Teflon pestle-glass homogenizer for homogenization for six (6) times. Then, potassium chloride solution was added into the homogenized suspension to bring the volume to about four (4) times of the homogenized suspension. The diluted suspension was 5 transferred into a centrifuge tube and centrifuged at 4° C., 9000 xg, for twenty (20) minutes. The supernatant containing microsomes from skin or liver tissue and other soluble substance were removed and the volume of the supernatant was brought up to four (4) times of the weight of the tissue by adding potassium chloride solution. The diluted supernatant was transferred into a centrifuge tube and centrifuged at 4° C., 100,000 xg, for one (1) hour (Beckman L8-80M). The precipitate containing the microsomes was obtained. Potassium chloride solution was added into the precipitate to bring the volume up to four (4) times of the weight of the tissue, and the suspension was centrifuged at 4° C., 100,000 xg for one (1) hour, to obtain the washed microsomes, which were stored at −78° C. in 0.1M KH2PO4-K2HPO4 buffer (pH=7.4).
The enzymatic activity of CYP1A was determined based on the activity of 7-ethoxyresorufin-O-deethylase (i.e., for CYP1A) and 7-methoxyresorufin-O-demethylase (i.e., CYP1A2). […] Except for the blank group, the reaction was triggered by adding 0.54 μM NADPH. In the test tube (16×100 mm), the reaction was carried out for ten (10) minutes at constant temperature (37° C.) with vibration and without light Methanol 2.5 ml was added into the reaction mixture to stop the reaction. Protein precipitate was removed from the reaction mixture by centrifuging the reaction mixture at 180 xg for ten (10) minutes. The supernatant was tested for florescent intensity with 550 nm as the excitation wavelength and 585 nm the emission wavelength. The florescent intensity was compared with 0.01 μM-0.1 μM standard Rhodamine B solution to obtain the reading of the CYP1A enzyme activity.

Structure (SMILES) | enhancing effect on liver CYP1A activity, in words | inhibitory effect on liver CYP1A activity, in words
O=c1cc(-c2ccccc2)oc2cc(O)c(O)c(O)c12 [Baicalein] | enhancing effect | 
O=C(O)[C@H]1O[C@@H](Oc2cc3oc(-c4ccccc4)cc(=O)c3c(O)c2O)[C@H](O)[C@@H](O)[C@@H]1O [Baicalin] | enhancing effect | inhibitory effects
COc1ccc([C@@H]2CC(=O)c3c(O)cc(O[C@@H]4O[C@H](CO[C@@H]5O[C@@H](C)[C@H](O)[C@@H](O)[C@H]5O)[C@@H](O)[C@H](O)[C@H]4O)cc3O2)cc1O [Hesperidin] | enhancing effect | inhibitory effects
O=c1cc(-c2ccc(O)c(O)c2)oc2cc(O[C@@H]3O[C@H](CO)[C@@H](O)[C@H](O)[C@H]3O)cc(O)c12 [Luteolin-7-glucoside] | enhancing effect | 
O=C1C[C@@H](c2ccc(O)cc2)Oc2cc(O)cc(O)c21 [Narigenin] | enhancing effect | inhibitory effects

Same assay, conditions: compound 1 μM; liver microsomes

Structure (SMILES) | liver CYP1A activity (% of control group) [%]
O=c1cc(-c2ccccc2)oc2cc(O)c(O)c(O)c12 [Baicalein] | 110.67
O=C(O)[C@H]1O[C@@H](Oc2cc3oc(-c4ccccc4)cc(=O)c3c(O)c2O)[C@H](O)[C@@H](O)[C@@H]1O [Baicalin] | 106.19
COc1ccc([C@@H]2CC(=O)c3c(O)cc(O[C@@H]4O[C@H](CO[C@@H]5O[C@@H](C)[C@H](O)[C@@H](O)[C@H]5O)[C@@H](O)[C@H](O)[C@H]4O)cc3O2)cc1O [Hesperidin] | 99.65
O=c1cc(-c2ccc(O)c(O)c2)oc2cc(O[C@@H]3O[C@H](CO)[C@@H](O)[C@H](O)[C@H]3O)cc(O)c12 [Luteolin-7-glucoside] | 109.79
O=C1C[C@@H](c2ccc(O)cc2)Oc2cc(O)cc(O)c21 [Narigenin] | 116.45

Same assay, conditions: compound 10 μM; liver microsomes

Structure (SMILES) | liver CYP1A activity (% of control group) [%]
O=c1cc(-c2ccccc2)oc2cc(O)c(O)c(O)c12 [Baicalein] | 114.18
O=C(O)[C@H]1O[C@@H](Oc2cc3oc(-c4ccccc4)cc(=O)c3c(O)c2O)[C@H](O)[C@@H](O)[C@@H]1O [Baicalin] | 90.79
COc1ccc([C@@H]2CC(=O)c3c(O)cc(O[C@@H]4O[C@H](CO[C@@H]5O[C@@H](C)[C@H](O)[C@@H](O)[C@H]5O)[C@@H](O)[C@H](O)[C@H]4O)cc3O2)cc1O [Hesperidin] | 87.38
O=c1cc(-c2ccc(O)c(O)c2)oc2cc(O[C@@H]3O[C@H](CO)[C@@H](O)[C@H](O)[C@H]3O)cc(O)c12 [Luteolin-7-glucoside] | 119.53
O=C1C[C@@H](c2ccc(O)cc2)Oc2cc(O)cc(O)c21 [Narigenin] | 107.17

Same assay, conditions: compound 100 μM; liver microsomes

Structure (SMILES) | liver CYP1A activity (% of control group) [%]
O=C(O)[C@H]1O[C@@H](Oc2cc3oc(-c4ccccc4)cc(=O)c3c(O)c2O)[C@H](O)[C@@H](O)[C@@H]1O [Baicalin] | 106.06
COc1ccc([C@@H]2CC(=O)c3c(O)cc(O[C@@H]4O[C@H](CO[C@@H]5O[C@@H](C)[C@H](O)[C@@H](O)[C@H]5O)[C@@H](O)[C@H](O)[C@H]4O)cc3O2)cc1O [Hesperidin] | 102.94
O=c1cc(-c2ccc(O)c(O)c2)oc2cc(O[C@@H]3O[C@H](CO)[C@@H](O)[C@H](O)[C@H]3O)cc(O)c12 [Luteolin-7-glucoside] | 123.78
O=C1C[C@@H](c2ccc(O)cc2)Oc2cc(O)cc(O)c21 [Narigenin] | 41.64
